From patent US11591354B2, “Thiamine compound, preparation method and pharmaceutical composition thereof” (SHANGHAI RAISING PHARMACEUTICAL CO., LTD., priority 2018, dated 2023)

Legend:
Aβ40 = Aβ40 content secreted by HEK293APP/sw overexpression cells after compound treatment (ELISA of supernatant); type: cell-based; conditions: 24 h; for Aβ40 content: APP/293 (HEK293APP/sw) cells, test sample 400 μM, culture supernatant, adjusted by total protein concentration, blank 127.81; for content of Aβ40 compared with benfotiamine in Comparative Example 2: APP/293 cells, 400 μM, in words
Experimental: (§1) (1) A BCA Protein Concentration Kit was purchased from Beyotime Biotechnology, a detection kit for Aβ40 and Aβ42 was purchased from Wako Co., Ltd., and cell culture related reagents were purchased from Gibico Co., Ltd.
(§2) (2) HEK293APP/sw overexpression cell culture: cells were cultured in a 48-well plate in DMEM culture medium (containing 10% FBS, 100 μg/mL G418 (Geneticin) and diabody), 4 mM stock solution of a test sample (prepared by dissolving the test sample in DMEM culture medium) was diluted to 400 μM in DMEM culture medium at a cell density of 70%, to each well was added 500 μL of the test sample, and the cells were cultured for 24 h.
(§3) (3) To the culture solution supernatant was added a BCA reagent, after incubating for 30 min at room temperature, absorbance of each well was measured at OD […] with a microplate reader, and a total protein concentration was calculated according to a protein standard curve; concentrations of Aβ40 and Aβ42 were measured with supernatant: the supernatant was added into a coated 96-well plate, followed by incubating overnight at 4° C., the reagent was removed and washed, HRP (horseradish peroxidase) labeled antibody was added, followed by incubating for 2 h at 4° C., the reagent was removed and washed, a TMB color developing solution was added, followed by incubating for 30 min at room temperature, a stop solution was added to stop reaction, absorbance of each well was measured at OD […] with a microplate reader, concentrations of Aβ40 and Aβ42 were calculated according to standard curves of A40 and Aβ42 respectively, and finally the concentrations of Aβ40 and Aβ42 were adjusted by using a total protein concentration to obtain a final concentration.

Aβ42 = Aβ42 content secreted by HEK293APP/sw overexpression cells after compound treatment (ELISA of supernatant); type: cell-based; conditions: 24 h; for Aβ42 content: APP/293 (HEK293APP/sw) cells, test sample 400 μM, culture supernatant, adjusted by total protein concentration, blank 11.08; for content of Aβ42 compared with benfotiamine in Comparative Example 2: APP/293 cells, 400 μM, in words
Experimental: as §1, §2, §3

## C/C(=C(\CCOP(=O)(O)O)SC(=O)c1ccccc1)N(C=O)Cc1cnc(C)nc1N [Comparative Example 2, benfotiamine, reference compound]
Aβ40
  Aβ40 content: 53.77 pmol/L
Aβ42
  Aβ42 content: 5.04 pmol/L

## CCCC(=O)S/C(CCOP(=O)(O)O)=C(/C)N(C=O)Cc1cnc(C)nc1N [Example 1, (Z)—S-(2-(N-((4-amino-2-methylpyrimidin-5-yl)methyl) formamido)-5-(phosphonooxy)pent-2-en-3-yl) butanethioate]
Aβ40
  Aβ40 content: 45.47 pmol/L
Aβ42
  Aβ42 content: 8.59 pmol/L

## CCCCCCCCCC(=O)S/C(CCOP(=O)(O)O)=C(/C)N(C=O)Cc1cnc(C)nc1N [Example 2, (Z)—S-(2-(N-((4-amino-2-methylpyrimidin-5-yl)methyl) formamido)-5-(phosphonooxy)pent-2-en-3-yl) decanethioate]
Aβ40
  Aβ40 content: 75.15 pmol/L
Aβ42
  Aβ42 content: 5.37 pmol/L

## CCCCCCCCCCCC(=O)S/C(CCOP(=O)(O)O)=C(/C)N(C=O)Cc1cnc(C)nc1N [Example 3, (Z)—S-(2-(N-((4-amino-2-methylpyrimidin-5-yl)methyl) formamido)-5-(phosphonooxy)pent-2-en-3-yl) dodecanethioate]
Aβ40
  Aβ40 content: 128.90 pmol/L
Aβ42
  Aβ42 content: 4.93 pmol/L

## C/C=C(\C)C(=O)S/C(CCOP(=O)(O)O)=C(/C)N(C=O)Cc1cnc(C)nc1N [Example 4, (E)-S—((Z)-2-(N-((4-amino-2-methylpyrimidin-5-yl)methyl) formamido)-5-(phosphonooxy)pent-2-en-3-yl) 2-methylbut-2-enethioate]
Aβ40
  Aβ40 content: 71.80 pmol/L
Aβ42
  Aβ42 content: 5.77 pmol/L

## CCC(C)C(=O)S/C(CCOP(=O)(O)O)=C(/C)N(C=O)Cc1cnc(C)nc1N (stereo not drawn) [Example 5, (Z)—S-(2-(N-((4-amino-2-methylpyrimidin-5-yl)methyl) formamido)-5-(phosphonooxy)pent-2-en-3-yl) 2-methylbutanethioate]
Aβ40
  Aβ40 content: 37.65 pmol/L
  content of Aβ40 compared with benfotiamine in Comparative Example 2: significantly reduced
Aβ42
  Aβ42 content: 2.09 pmol/L
  content of Aβ42 compared with benfotiamine in Comparative Example 2: significantly reduced

## C/C(=C(\CCOP(=O)(O)O)SC(=O)C(C)C)N(C=O)Cc1cnc(C)nc1N [Example 6, (Z)—S-(2-(N-((4-amino-2-methylpyrimidin-5-yl)methyl) formamido)-5-(phosphonooxy)pent-2-en-3-yl) 2-methylpropanethioate]
Aβ40
  Aβ40 content: 44.38 pmol/L
  content of Aβ40 compared with benfotiamine in Comparative Example 2: significantly reduced
Aβ42
  Aβ42 content: 2.41 pmol/L
  content of Aβ42 compared with benfotiamine in Comparative Example 2: significantly reduced

## CCCCCCCC(=O)S/C(CCOP(=O)(O)O)=C(/C)N(C=O)Cc1cnc(C)nc1N [Example 7, (Z)—S-(2-(N-((4-amino-2-methylpyrimidin-5-yl)methyl) formamido)-5-(phosphonooxy)pent-2-en-3-yl) octanethioate]
Aβ40
  Aβ40 content: 106.81 pmol/L
Aβ42
  Aβ42 content: 6.09 pmol/L

## C/C(=C(\CCOP(=O)(O)O)SC(=O)CCc1ccccc1)N(C=O)Cc1cnc(C)nc1N [Example 8, (Z)—S-(2-(N-((4-amino-2-methylpyrimidin-5-yl)methyl) formamido)-5-(phosphonooxy)pent-2-en-3-yl) 3-phenylpropanethioate]
Aβ40
  Aβ40 content: 57.86 pmol/L
Aβ42
  Aβ42 content: 6.38 pmol/L

## C=CCCCC(=O)S/C(CCOP(=O)(O)O)=C(/C)N(C=O)Cc1cnc(C)nc1N [Example 9, (Z)—S-(2-(N-((4-amino-2-methylpyrimidin-5-yl)methyl) formamido)-5-(phosphonooxy)pent-2-en-3-yl) hex-5-enethioate]
Aβ40
  Aβ40 content: 80.40 pmol/L
Aβ42
  Aβ42 content: 5.70 pmol/L

## C/C(=C(\CCOP(=O)(O)O)SC(=O)Cc1c(F)cccc1F)N(C=O)Cc1cnc(C)nc1N [Example 10, (Z)—S-(2-(N-((4-amino-2-methylpyrimidin-5-yl)methyl) formamido)-5-(phosphonooxy)pent-2-en-3-yl) 2-(2,6-difluorophenyl) ethanethioate]
Aβ40
  Aβ40 content: 71.11 pmol/L
Aβ42
  Aβ42 content: 10.62 pmol/L

## C=CC(C)(C)C(=O)S/C(CCOP(=O)(O)O)=C(/C)N(C=O)Cc1cnc(C)nc1N [Example 11, (Z)—S-(2-(N-((4-amino-2-methylpyrimidin-5-yl)methyl) formamido)-5-(phosphonooxy)pent-2-en-3-yl) 2,2-dimethylbut-3-enethioate]
Aβ40
  Aβ40 content: 54.75 pmol/L
  content of Aβ40 compared with benfotiamine in Comparative Example 2: substantially the same
Aβ42
  Aβ42 content: 3.22 pmol/L
  content of Aβ42 compared with benfotiamine in Comparative Example 2: reduced

## CCC/C=C/C(=O)S/C(CCOP(=O)(O)O)=C(/C)N(C=O)Cc1cnc(C)nc1N [Example 12, (E)-S—((Z)-2-(N-((4-amino-2-methylpyrimidin-5-yl)methyl) formamido)-5-(phosphonooxy)pent-2-en-3-yl) hex-2-enethioate]
Aβ40
  Aβ40 content: 32.87 pmol/L
  content of Aβ40 compared with benfotiamine in Comparative Example 2: significantly reduced
Aβ42
  Aβ42 content: 0.34 pmol/L
  content of Aβ42 compared with benfotiamine in Comparative Example 2: significantly reduced

## CCCCC(CC)C(=O)S/C(CCOP(=O)(O)O)=C(/C)N(C=O)Cc1cnc(C)nc1N (stereo not drawn) [Example 13, (Z)—S-(2-(N-((4-amino-2-methylpyrimidin-5-yl)methyl) formamido)-5-(phosphonooxy)pent-2-en-3-yl) 2-ethylhexanethioate]
Aβ40
  Aβ40 content: 56.28 pmol/L
Aβ42
  Aβ42 content: 24.36 pmol/L

## CCCC(C)C(=O)S/C(CCOP(=O)(O)O)=C(/C)N(C=O)Cc1cnc(C)nc1N (stereo not drawn) [Example 14, (Z)—S-(2-(N-((4-amino-2-methylpyrimidin-5-yl)methyl) formamido)-5-(phosphonooxy)pent-2-en-3-yl) 2-methylpentanethioate]
Aβ40
  Aβ40 content: 60.34 pmol/L
Aβ42
  Aβ42 content: 6.79 pmol/L

## CCCCC(C)C(=O)S/C(CCOP(=O)(O)O)=C(/C)N(C=O)Cc1cnc(C)nc1N (stereo not drawn) [Example 15, (Z)—S-(2-(N-((4-amino-2-methylpyrimidin-5-yl)methyl) formamido)-5-(phosphonooxy)pent-2-en-3-yl) 2-methylhexanethioate]
Aβ40
  Aβ40 content: 40.39 pmol/L
Aβ42
  Aβ42 content: 9.59 pmol/L

## CCC(C)(C)C(=O)S/C(CCOP(=O)(O)O)=C(/C)N(C=O)Cc1cnc(C)nc1N [Example 16, (Z)—S-(2-(N-((4-amino-2-methylpyrimidin-5-yl)methyl) formamido)-5-(phosphonooxy)pent-2-en-3-yl) 2,2-dimethylbutanethioate]
Aβ40
  Aβ40 content: 85.96 pmol/L
Aβ42
  Aβ42 content: 33.70 pmol/L

## CCCCC(C)(C)C(=O)S/C(CCOP(=O)(O)O)=C(/C)N(C=O)Cc1cnc(C)nc1N [Example 17, (Z)—S-(2-(N-((4-amino-2-methylpyrimidin-5-yl)methyl) formamido)-5-(phosphonooxy)pent-2-en-3-yl) 2,2-dimethylhexanethioate]
Aβ40
  Aβ40 content: 77.22 pmol/L
Aβ42
  Aβ42 content: 6.24 pmol/L
